Here are results for six compounds from US20230010299A1, “HETEROCYCLIC TRPML1 AGONISTS” (LIBRA THERAPEUTICS, INC., priority 2019, published 2023).

The test system of assay [1] is autophagy reporter Rosella (LC3 tag) in HeK293 cell line. The assay can be described thus: Autophagy assay (reporter Rosella, imaging). Format: cell-based. Particulars: Homo sapiens; HeK293 cells stably expressing reporter Rosella; 18 hours incubation; reference Torin-1 1 μM as max signal; read-out: Secondary Assays Autophagy qAC50. The method, then:
Buffers and Reagents • Tyrode's buffer with 2 mM Ca^2+ in-house solution (130 mM NaCl, 5 mM KCl, 2 mM CaCl2), 1 mM MgCl2, 5 mM NaHCO3, 20 mM HEPES in water at pH 7.4; sterile filtered) • DMSO (Sigma) • Bis-benzimide H 33342 trihydrochloride (Hoechst 33342; Sigma-Aldrich) • Reference molecule (agonist): Torin-1, (#4247, Tocris) stock 1.2 mM in DMSO, stored at −20° C.
Reporter of Autophagy and Cell Line
Reporter Rosella: a fluorescent-based chimera constitutes by two fluorescent proteins, Green and Red variants, acting as a bimodal indicator of pH. […] The reporter is fused to sequence for autophagosome localization (LC3 tag).
The reporter Rosella have been stably expressed in HeK293 cell line and used as read-out.
Experiments have been performed in 384 MTP poly-lysine coated well format. Cells have been seeded in 384-w at a density of 6000 cells/well in 25 μl/well complete growth medium without antibiotics. Twenty-four hours later, cells have been treated with compounds and incubated for further 18 hours. Then the cells have been imaged and assayed for the response to various compounds using the reporter for autophagy expressed in the cells as readout.
The experiments were performed in a 384-well format according to the following procedure: • 24 h after seeding, cells were incubated with compounds at the desired concentration, and with the reference molecule (agonist) Torin-1 at a top concentration of 1 μM (max signal), for 18 hours at 37° C. and 5% CO2. The final percentage of DMSO was 0.3% in all the conditions. • Then the culture medium was carefully removed to avoid cells detachment and to discard red phenol into the medium and that can interfere with the measurements. • Staining of the nuclei was obtained by incubating the cells with 8 μM/well of Hoechst 3342 in standard Tyrode's buffer for 20 min at RT • Then the cells were carefully washed two times with standard Tyrode's buffer • Finally, the samples were acquired by recording three fluorescence emission channels (green, red and blue) at 20× magnification and with at least 3-4 fields of view per well in an Operetta CLS microscope (PerkinElmer). • Image analysis was performed by using Harmony software (PerkinElmer). The image analysis involved the following steps: flat-field illumination correction, nuclei segmentation, cell segmentations and identification of vesicles/granules within the cytosol compartments and representing the autophagy vesicles. Measurements of signal intensity ratio (Green to Red) and number of autophagy vesicles per cells were used to obtain information on the effects of compounds on the autophagy flux. • Data from image analysis measurements were finally loaded and analyzed for normalization and fitting procedures in Genedata Screener© software.

The next assay addresses T1, TRPML1 (Homo sapiens, UniProt Q9GZU1).
T1 construct: expressed in transfected cells
The assay can be described thus: TRPML1 automated patch-clamp (QPatch 16X). Format: cell-based. The conditions noted are these: HEK T-REx/GcaMP6f/TRPML1 cells, current with compound/current in vehicle, extracellular pH 4.6. The method, then: TRPML1—Automated Patch-Clamp
HEK T-REx/GcaMP6f/TRPML1 cells were cultured in DMEM High Glucose (Lonza BioWhittaker cat. BE12-604F/U1; 500 mL) supplemented with Fetal Bovine Serum TET-FREE (Euroclone cat. EC S0182L; 50 mL, Penicillin-Streptomycin (BioWhittaker, cat. DE17-602E; 5 mL of 100× Solution), G418 (Sigma, cat. G8168; 0.25 mg/ml) and Zeocyn (InvivoGen, cat. ant-zn-1; 50 μg/ml).
HEK T-REx/GcaMP6f/TRPML1 cells were seeded 48 or 72 hours before experiment, at a concentration of 8*10^6/4*10^6 cells onto a T225 flask. Just before the experiments, cells were washed twice with D-PBS w/o Ca^2+/Mg^2+ (Euroclone cat. ECB4004L) and detached from the flask with trypsin-EDTA (Sigma cat. T4174; diluted 1/10). Cells were then re-suspended in the suspension solution: 25 mL EX-CELL ACF CHO medium(Sigma cat. C5467); 0.625 mL HEPES (Sigma cat. H0887); 0.25 mL of 100× Penicillin/Streptomycin (Euroclone cat. ECB3001D), 0.1 mL of Soybean Trypsin Inhibitor 10 mg/mL (Sigma cat. T6522) and placed on the QPatch 16X.
Dilution from stock were prepared just before the experiments in the extracellular solution (0.25% final DMSO concentration). DMSO solution was obtained from AppliChem (cat. A3672)
Patch Clamp Solutions: • Intracellular solution (mM): 120 CsMeSO3, 4 NaCl, 2 MgCl2, 10 EGTA, 20 HEPES, 2 Mg-ATP (pH 7.2 with CsOH). • Extracellular solution (mM): 140 NaGluconate, 5 KCl, 1 MgCl2, 2 CaCl2), 10 Glucose, 10 MES (pH 4.6 with HCl).
Patch Clamp Analysis—QPatch 16X
For the voltage clamp experiments on TRPML1, data were sampled at 5 KHz. After establishment of the seal and the passage in the whole cell configuration, the cells were held at −20 mV and the TRPML1 current was evoked using the voltage protocol illustrated in FIG. 2, applied every 5 sec. (50 ms at −20 mV; 20 ms at −120 mV, 1000 ms ramp from −120 to […]; 20 ms at +40 mV, and back to −20 mV); in the absence (vehicle period, i.e. 0.25% DMSO) and in the presence of increasing concentrations (3) of the compound under investigation.
Agonists: For data collection, the Sophion proprietary software was used and the analysis was performed off-line using Excel and GraphPad Prism (V 8.00). Results are reported in Table 6, expressed as TRPML1 current fold increase evoked by the compound under investigation (i.e. current in the presence of the compound/current in vehicle).
In general terms: In patch-clamp work, channel activity is measured electrically.

T1 sequence (Q9GZU1 whole entry): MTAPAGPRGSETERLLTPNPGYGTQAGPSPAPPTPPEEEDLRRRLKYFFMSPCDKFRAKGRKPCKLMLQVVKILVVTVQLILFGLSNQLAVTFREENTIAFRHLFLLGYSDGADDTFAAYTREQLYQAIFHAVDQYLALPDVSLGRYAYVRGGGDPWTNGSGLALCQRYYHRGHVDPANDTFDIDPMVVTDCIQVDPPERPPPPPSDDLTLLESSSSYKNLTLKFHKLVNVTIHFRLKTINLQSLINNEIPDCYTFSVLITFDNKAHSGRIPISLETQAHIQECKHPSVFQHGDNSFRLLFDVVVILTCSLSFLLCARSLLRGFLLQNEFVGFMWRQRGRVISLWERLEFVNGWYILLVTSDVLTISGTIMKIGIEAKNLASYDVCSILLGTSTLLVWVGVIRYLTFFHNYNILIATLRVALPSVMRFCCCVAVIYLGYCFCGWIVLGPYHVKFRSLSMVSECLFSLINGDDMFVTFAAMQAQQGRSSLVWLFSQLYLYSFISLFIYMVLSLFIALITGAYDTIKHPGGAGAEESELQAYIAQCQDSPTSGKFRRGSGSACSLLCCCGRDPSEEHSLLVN

Take `CN(C)S(=O)(=O)c1ccc(S(=O)(=O)NC2CCCCC2N2CCC(Oc3ccccc3)CC2)cc1` (racemic) [Example 57, N1,N1-dimethyl-N4-[2-(4-phenoxypiperidin-1-yl)cyclohexyl]benzene-1,4-disulfonamide]: the EC50 in assay [1] was determined as 1800 nM. The “Qpatch Assay TRPML1 agonism Current fold increase Mean ± SEM (n)” value is reported as 0.39 ± 0.14 (2) at TRPML1 (0.3 μM compound), 0.86 ± 0.68 (2) on TRPML1 (3.0 μM compound) and 4.3 ± 2.2 (2) at TRPML1 (30 μM compound).
In the case of `CN(C)S(=O)(=O)c1ccc(S(=O)(=O)Nc2ccccc2N2CCN(C(=O)OC(C)(C)C)CC2)cc1` [Example 13, tert-butyl 4-{2-[4-(dimethylsulfamoyl)benzenesulfonamido]phenyl}piperazine-1-carboxylate], in assay [1], the EC50 stood at 520 nM. In addition, the “Qpatch Assay TRPML1 agonism Current fold increase Mean ± SEM (n)” value was 13.5 ± 4.8 (4) on TRPML1 (0.3 μM compound), 208 ± 15.7 (4) at TRPML1 (3.0 μM compound) and 244 ± 27.6 (4) on TRPML1 (30 μM compound).
As for `CN(C)S(=O)(=O)c1ccc(S(=O)(=O)Nc2ccccc2N2CCC(Oc3cnccn3)CC2)cc1` [Example 77, N1,N1-dimethyl-N4-{2-[4-(pyrazin-2-yloxy)piperidin-1-yl]phenyl} benzene-1,4-disulfonamide], the EC50 in assay [1] is 250 nM. Moreover, the results for the “Qpatch Assay TRPML1 agonism Current fold increase Mean ± SEM (n)” value at TRPML1 (0.3 μM compound), on TRPML1 (3.0 μM compound) and on TRPML1 (30 μM compound) were 74.4 ± 13.8 (3), 167 ± 10.7 (3) and 168 ± 9.8 (3), respectively.
Take `CN(C)S(=O)(=O)c1ccc(S(=O)(=O)Nc2ccccc2N2CCCCC2)cc1` [Example 6, N1,N1-dimethyl-N4-[2-(piperidin-1-yl)phenyl]benzene-1,4-disulfonamide]: the EC50 in assay [1] is 4400 nM. In addition, the “Qpatch Assay TRPML1 agonism Current fold increase Mean ± SEM (n)” value on TRPML1 (0.3 μM compound) is reported as 1.0 ± 0.77 (3); on TRPML1 (3.0 μM compound), 32.7 ± 8.9 (3).
On to `CN(C)S(=O)(=O)c1ccc(S(=O)(=O)Nc2ccccc2N2CCC(Oc3ccccn3)CC2)cc1` [Example 75, N1,N1-dimethyl-N4-{2-[4-(pyridin-2-yloxy)piperidin-1-yl]phenyl}benzene-1,4-disulfonamide], for which the EC50 in assay [1] stood at 170 nM. Besides, the figures for the “Qpatch Assay TRPML1 agonism Current fold increase Mean ± SEM (n)” value at TRPML1 (0.3 μM compound), at TRPML1 (3.0 μM compound) and on TRPML1 (30 μM compound) were 310 ± 147 (4), 435 ± 172 (4) and 603 ± 155 (3), respectively.
Taken in the same sequence, the figures for `CN(C)S(=O)(=O)c1ccc(S(=O)(=O)Nc2ccccc2N2CCC(C(=O)OC(C)(C)C)CC2)cc1` [Example 76, f-butyl 1-{2-[4-(dimethylsulfamoyl)benzenesulfonamido]phenyl}piperidine-4-carboxylate] were 59 nM, 35.6 ± 26.7 (3), 38.5 ± 24.8 (2) and 52.7 ± 36.3 (2).
